Test results taken from ChEMBL document CHEMBL1143125, “DNA cleavage by novel copper (II) complex and the role of beta-cyclodextrin in promoting cleavage” (Bioorg Med Chem, 2008).

Legend:
[1] = system: DNA; experiment: Binding affinity to calf thymus DNA assessed by fluorescence quenching assay; format: nucleic-acid assay; conditions: Bos taurus
[2] = system: Escherichia coli; experiment: Induction of Escherichia coli pUC19 DNA cleavage assessed as non-cleaved DNA level at 0.714 mM after 12 hrs

K [1] | Activity [2] | Structure (SMILES)
30000 L/mol | 7.4% | NC(CCC(=O)Nc1cccc2ccccc12)C(=O)N1CCNCCNCCNCC1 (stereo not drawn)
– | 6.3% | OC[C@H]1O[C@@H]2O[C@H]3[C@H](O)[C@@H](O)[C@@H](O[C@H]4[C@H](O)[C@@H](O)[C@@H](O[C@H]5[C@H](O)[C@@H](O)[C@@H](O[C@H]6[C@H](O)[C@@H](O)[C@@H](O[C@H]7[C@H](O)[C@@H](O)[C@@H](O[C@H]8[C@H](O)[C@@H](O)[C@@H](O[C@H]1[C@H](O)[C@H]2O)O[C@@H]8CO)O[C@@H]7CO)O[C@@H]6CO)O[C@@H]5CO)O[C@@H]4CO)O[C@@H]3CO
